Laboratory results published in article PMC8500670, “A selective WDR5 degrader inhibits acute myeloid leukemia in patient-derived mouse models” (Science translational medicine, 2021).
Read-outs that look alike come from different tables or passages of the source.

Assays:
TAO2(h) = target: T1, TAO2(h) (Homo sapiens, UniProt Q9UL54); experiment: biochemical; parameters: kinase selectivity panel, activity as per cent of control, single concentration in duplicate; conditions: read-out: % of control remaining
T1 construct: gene TAOK2
Description: (§1) We next assessed selectivity of MS67 against 22 protein methyltransferases (table S2) and a broad panel of common drug targets including 45 kinases (table S3) and 44 G protein–coupled receptors (GPCR), ion channels, and transporters (table S4). […] We subsequently determined that MS67 had moderate binding affinity (Ki = 1.0 ± 0.8 μM) to Sigma 2 receptor (fig. S10).

cSRC(h) = target: T2, cSRC(h) (Homo sapiens, UniProt P12931); experiment: biochemical; parameters: kinase selectivity panel, activity as per cent of control, single concentration in duplicate; conditions: read-out: % of control remaining
T2 construct: gene SRC
Description: as §1

Abl(h) = target: T3, Abl(h) (Homo sapiens, UniProt P00519); experiment: biochemical; parameters: kinase selectivity panel, activity as per cent of control, single concentration in duplicate; conditions: read-out: % of control remaining
T3 construct: gene ABL1
Description: as §1

Aurora-A(h) = target: T4, Aurora-A(h) (Homo sapiens, UniProt O14965); experiment: biochemical; parameters: kinase selectivity panel, activity as per cent of control, single concentration in duplicate; conditions: read-out: % of control remaining
T4 construct: gene AURKA
Description: as §1

PAK4(h) = PAK4(h) (Homo sapiens, UniProt O96013); experiment: biochemical; parameters: kinase selectivity panel, activity as per cent of control, single concentration in duplicate; conditions: read-out: % of control remaining
Description: as §1

Mnk2(h) = target: T5, Mnk2(h) (Homo sapiens, UniProt Q9HBH9); experiment: biochemical; parameters: kinase selectivity panel, activity as per cent of control, single concentration in duplicate; conditions: read-out: % of control remaining
T5 construct: gene MKNK2
Description: as §1

JNK1α1(h) = target: T6, JNK1α1(h) (Homo sapiens, UniProt P45983); experiment: biochemical; parameters: kinase selectivity panel, activity as per cent of control, single concentration in duplicate; conditions: read-out: % of control remaining
T6 construct: gene MAPK8; isoform alpha1
Description: as §1

MARK1(h) = MARK1(h) (Homo sapiens, UniProt Q9P0L2); experiment: biochemical; parameters: kinase selectivity panel, activity as per cent of control, single concentration in duplicate; conditions: read-out: % of control remaining
Description: as §1

SGK(h) = target: T7, SGK(h) (Homo sapiens, UniProt O00141); experiment: biochemical; parameters: kinase selectivity panel, activity as per cent of control, single concentration in duplicate; conditions: read-out: % of control remaining
T7 construct: gene SGK1
Description: as §1

CDK1/cyclinB(h) = CDK1/cyclinB(h) (Homo sapiens, UniProt P06493); experiment: biochemical; parameters: kinase selectivity panel, activity as per cent of control, single concentration in duplicate; conditions: read-out: % of control remaining
Description: as §1

CDK2/cyclinA(h) = CDK2/cyclinA(h) (Homo sapiens, UniProt P24941); experiment: biochemical; parameters: kinase selectivity panel, activity as per cent of control, single concentration in duplicate; conditions: read-out: % of control remaining
Description: as §1

SIK(h) = target: T8, SIK(h) (Homo sapiens, UniProt P57059); experiment: biochemical; parameters: kinase selectivity panel, activity as per cent of control, single concentration in duplicate; conditions: read-out: % of control remaining
T8 construct: gene SIK1
Description: as §1

EGFR(h) = EGFR(h) (Homo sapiens, UniProt P00533); experiment: biochemical; parameters: kinase selectivity panel, activity as per cent of control, single concentration in duplicate; conditions: read-out: % of control remaining
Description: as §1

[1] = target: WDR5 (WD40 repeat domain protein 5) (Homo sapiens, UniProt P61964); experiment: ITC; […]-Å crystal structure of WDR5-MS67-VCB ternary complex; assay type: binding
SERT = target: T9, SERT (Homo sapiens, UniProt P31645); experiment: biochemical; parameters: GPCR, ion channel and transporter panel, per cent inhibition of binding, mean of four
T9 construct: gene SLC6A4
Description: as §1

Alpha2B = target: T10, Alpha2B (Homo sapiens, UniProt P18089); experiment: biochemical; parameters: GPCR, ion channel and transporter panel, per cent inhibition of binding, mean of four
T10 construct: gene ADRA2B
Description: as §1

5-HT3 = target: T11, 5-HT3 (Homo sapiens, UniProt P46098); experiment: biochemical; parameters: GPCR, ion channel and transporter panel, per cent inhibition of binding, mean of four
T11 construct: gene HTR3A
Description: as §1

5-HT1D = target: T12, 5-HT1D (Homo sapiens, UniProt P28221); experiment: biochemical; parameters: GPCR, ion channel and transporter panel, per cent inhibition of binding, mean of four
T12 construct: gene HTR1D
Description: as §1

PRMT5/MEP50 Complex [2] = target: T13, PRMT5/MEP50 Complex (Homo sapiens, UniProt O14744); experiment: biochemical; parameters: complex; protein methyltransferase inhibition panel, single concentration, duplicate
T13 sequence (O14744 whole entry): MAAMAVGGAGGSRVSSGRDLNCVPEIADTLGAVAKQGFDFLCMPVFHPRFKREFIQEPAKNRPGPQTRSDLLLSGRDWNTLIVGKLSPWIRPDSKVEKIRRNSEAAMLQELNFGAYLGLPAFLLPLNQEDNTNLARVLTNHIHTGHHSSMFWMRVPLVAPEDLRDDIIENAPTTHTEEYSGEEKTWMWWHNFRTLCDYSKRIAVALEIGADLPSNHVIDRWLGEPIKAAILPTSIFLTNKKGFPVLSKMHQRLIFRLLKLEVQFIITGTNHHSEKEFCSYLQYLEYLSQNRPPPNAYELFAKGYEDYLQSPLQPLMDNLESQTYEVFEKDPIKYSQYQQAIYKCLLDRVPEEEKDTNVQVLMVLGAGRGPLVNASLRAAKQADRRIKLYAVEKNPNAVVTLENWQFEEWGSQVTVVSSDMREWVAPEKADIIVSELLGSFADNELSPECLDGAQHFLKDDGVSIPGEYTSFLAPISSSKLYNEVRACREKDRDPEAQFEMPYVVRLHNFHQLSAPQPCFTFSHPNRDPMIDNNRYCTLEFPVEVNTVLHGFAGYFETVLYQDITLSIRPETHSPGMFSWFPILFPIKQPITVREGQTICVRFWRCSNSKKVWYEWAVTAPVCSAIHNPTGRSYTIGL
T13 sequence (Q9BQA1 whole entry partner): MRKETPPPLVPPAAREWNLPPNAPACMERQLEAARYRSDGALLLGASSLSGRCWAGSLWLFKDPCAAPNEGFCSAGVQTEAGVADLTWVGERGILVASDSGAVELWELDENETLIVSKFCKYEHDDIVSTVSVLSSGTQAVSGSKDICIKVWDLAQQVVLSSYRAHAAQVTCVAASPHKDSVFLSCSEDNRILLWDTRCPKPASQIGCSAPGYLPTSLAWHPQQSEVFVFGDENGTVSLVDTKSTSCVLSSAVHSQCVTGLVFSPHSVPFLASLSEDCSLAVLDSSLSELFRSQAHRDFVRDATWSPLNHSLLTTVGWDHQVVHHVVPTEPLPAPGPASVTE
Description: as §1

EZH2 Complex [3] = target: T14, EZH2 Complex (Homo sapiens, UniProt Q15910); experiment: biochemical; parameters: complex; protein methyltransferase inhibition panel, single concentration, duplicate
T14 sequence (Q15910 whole entry): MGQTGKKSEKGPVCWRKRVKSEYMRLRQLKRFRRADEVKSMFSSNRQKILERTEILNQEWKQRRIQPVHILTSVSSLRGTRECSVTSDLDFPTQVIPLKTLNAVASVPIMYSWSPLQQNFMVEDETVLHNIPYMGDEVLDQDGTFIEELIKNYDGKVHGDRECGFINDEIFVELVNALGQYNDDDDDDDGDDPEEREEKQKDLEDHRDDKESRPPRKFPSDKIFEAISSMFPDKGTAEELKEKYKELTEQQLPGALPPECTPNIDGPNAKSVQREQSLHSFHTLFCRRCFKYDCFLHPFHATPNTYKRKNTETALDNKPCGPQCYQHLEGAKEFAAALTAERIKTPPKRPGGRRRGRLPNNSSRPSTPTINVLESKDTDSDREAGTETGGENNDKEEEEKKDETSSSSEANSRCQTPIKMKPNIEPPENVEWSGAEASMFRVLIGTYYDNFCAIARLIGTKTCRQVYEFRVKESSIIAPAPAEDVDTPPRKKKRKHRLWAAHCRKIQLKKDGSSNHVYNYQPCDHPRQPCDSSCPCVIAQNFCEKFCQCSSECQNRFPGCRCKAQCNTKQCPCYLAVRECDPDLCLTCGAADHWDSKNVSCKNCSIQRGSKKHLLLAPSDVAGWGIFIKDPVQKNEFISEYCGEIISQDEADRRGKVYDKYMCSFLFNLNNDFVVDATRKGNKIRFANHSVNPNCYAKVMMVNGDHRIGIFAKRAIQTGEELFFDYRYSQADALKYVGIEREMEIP
T14 sequence (O75530 whole entry partner): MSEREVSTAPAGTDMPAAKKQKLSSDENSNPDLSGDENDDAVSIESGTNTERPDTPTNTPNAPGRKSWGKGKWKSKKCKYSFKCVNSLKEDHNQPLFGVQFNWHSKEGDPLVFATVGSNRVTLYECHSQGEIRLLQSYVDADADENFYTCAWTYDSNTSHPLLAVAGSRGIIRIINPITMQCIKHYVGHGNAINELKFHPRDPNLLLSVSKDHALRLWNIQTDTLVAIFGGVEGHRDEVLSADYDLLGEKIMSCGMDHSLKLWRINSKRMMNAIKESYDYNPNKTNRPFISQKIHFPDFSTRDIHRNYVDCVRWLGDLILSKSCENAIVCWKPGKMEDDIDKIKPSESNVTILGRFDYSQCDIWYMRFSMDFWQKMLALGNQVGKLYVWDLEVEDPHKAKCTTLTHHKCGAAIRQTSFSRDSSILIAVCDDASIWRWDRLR
T14 sequence (Q09028 whole entry partner): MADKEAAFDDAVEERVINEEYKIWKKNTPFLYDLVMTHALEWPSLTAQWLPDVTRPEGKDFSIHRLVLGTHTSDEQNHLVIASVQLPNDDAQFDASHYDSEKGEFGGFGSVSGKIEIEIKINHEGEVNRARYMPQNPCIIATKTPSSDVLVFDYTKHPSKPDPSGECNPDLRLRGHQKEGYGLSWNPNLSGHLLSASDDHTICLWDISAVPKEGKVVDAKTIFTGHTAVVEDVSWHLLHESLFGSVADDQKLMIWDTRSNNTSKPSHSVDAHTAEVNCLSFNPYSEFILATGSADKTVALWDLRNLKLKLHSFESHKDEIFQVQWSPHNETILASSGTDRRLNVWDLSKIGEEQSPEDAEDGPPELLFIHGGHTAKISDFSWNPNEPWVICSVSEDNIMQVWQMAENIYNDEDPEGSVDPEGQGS
T14 sequence (Q15022 whole entry partner): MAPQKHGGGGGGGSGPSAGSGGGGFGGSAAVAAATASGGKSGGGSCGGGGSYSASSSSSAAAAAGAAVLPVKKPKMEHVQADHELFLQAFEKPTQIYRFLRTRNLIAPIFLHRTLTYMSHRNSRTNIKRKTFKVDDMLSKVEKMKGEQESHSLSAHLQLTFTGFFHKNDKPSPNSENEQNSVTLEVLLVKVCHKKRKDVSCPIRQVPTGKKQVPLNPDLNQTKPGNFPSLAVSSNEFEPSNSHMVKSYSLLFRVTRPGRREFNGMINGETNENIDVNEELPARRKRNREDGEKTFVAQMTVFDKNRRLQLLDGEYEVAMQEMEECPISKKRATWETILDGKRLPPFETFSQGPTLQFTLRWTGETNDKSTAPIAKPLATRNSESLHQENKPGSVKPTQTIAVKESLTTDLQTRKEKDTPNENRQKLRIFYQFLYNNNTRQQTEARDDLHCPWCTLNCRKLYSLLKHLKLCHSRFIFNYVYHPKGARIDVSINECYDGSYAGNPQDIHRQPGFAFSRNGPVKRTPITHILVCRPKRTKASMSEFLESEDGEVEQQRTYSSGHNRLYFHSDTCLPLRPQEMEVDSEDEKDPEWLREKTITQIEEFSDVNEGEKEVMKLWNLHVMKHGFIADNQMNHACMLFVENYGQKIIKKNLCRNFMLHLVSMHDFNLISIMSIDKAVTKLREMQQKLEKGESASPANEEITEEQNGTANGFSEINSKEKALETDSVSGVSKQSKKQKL
T14 sequence (Q6ZN18 whole entry partner): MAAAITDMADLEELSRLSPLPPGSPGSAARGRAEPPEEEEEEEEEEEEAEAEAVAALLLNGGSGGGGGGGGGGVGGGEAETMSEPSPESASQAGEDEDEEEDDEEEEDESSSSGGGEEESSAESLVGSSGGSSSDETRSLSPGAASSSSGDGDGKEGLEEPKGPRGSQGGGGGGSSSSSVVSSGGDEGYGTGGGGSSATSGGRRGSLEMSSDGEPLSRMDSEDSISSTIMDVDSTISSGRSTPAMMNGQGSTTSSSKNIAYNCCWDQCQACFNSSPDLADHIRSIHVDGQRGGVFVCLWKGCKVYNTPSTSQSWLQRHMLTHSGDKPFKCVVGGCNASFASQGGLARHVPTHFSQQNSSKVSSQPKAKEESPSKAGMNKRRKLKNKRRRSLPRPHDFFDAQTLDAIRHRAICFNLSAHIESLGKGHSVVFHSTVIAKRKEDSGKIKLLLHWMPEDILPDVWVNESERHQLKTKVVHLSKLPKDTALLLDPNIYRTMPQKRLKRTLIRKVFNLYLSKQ
Description: as §1

EZH1 Complex [4] = target: T15, EZH1 Complex (Homo sapiens, UniProt Q92800); experiment: biochemical; parameters: complex; protein methyltransferase inhibition panel, single concentration, duplicate
T15 sequence (Q92800 whole entry): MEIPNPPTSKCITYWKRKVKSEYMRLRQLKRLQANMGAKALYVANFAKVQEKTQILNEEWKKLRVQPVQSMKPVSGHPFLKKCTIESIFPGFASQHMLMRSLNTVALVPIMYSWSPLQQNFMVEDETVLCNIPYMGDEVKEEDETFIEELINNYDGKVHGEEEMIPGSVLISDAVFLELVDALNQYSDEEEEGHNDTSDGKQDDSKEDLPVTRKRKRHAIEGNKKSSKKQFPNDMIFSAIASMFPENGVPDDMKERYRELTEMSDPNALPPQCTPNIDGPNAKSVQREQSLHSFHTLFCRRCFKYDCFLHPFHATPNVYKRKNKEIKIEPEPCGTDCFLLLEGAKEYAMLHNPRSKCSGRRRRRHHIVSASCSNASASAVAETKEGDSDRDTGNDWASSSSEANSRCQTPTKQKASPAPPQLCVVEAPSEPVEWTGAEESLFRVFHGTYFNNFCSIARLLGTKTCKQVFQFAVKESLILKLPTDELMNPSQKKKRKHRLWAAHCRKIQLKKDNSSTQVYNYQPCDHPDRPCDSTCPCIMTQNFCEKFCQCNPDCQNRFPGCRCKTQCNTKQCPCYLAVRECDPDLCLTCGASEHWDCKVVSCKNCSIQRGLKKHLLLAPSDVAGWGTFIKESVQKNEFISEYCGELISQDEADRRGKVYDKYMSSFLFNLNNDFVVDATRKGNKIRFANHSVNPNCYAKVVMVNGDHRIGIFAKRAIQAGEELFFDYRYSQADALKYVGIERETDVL
T15 sequence (O75530 whole entry partner): as the sequence (O75530 whole entry partner) above
T15 sequence (Q09028 whole entry partner): as the sequence (Q09028 whole entry partner) above
T15 sequence (Q15022 whole entry partner): as the sequence (Q15022 whole entry partner) above
T15 sequence (Q6ZN18 whole entry partner): as the sequence (Q6ZN18 whole entry partner) above
Description: as §1

PRMT5/MEP50 Complex [5] = target: T13, PRMT5/MEP50 Complex; experiment: biochemical; parameters: Complex; protein methyltransferase selectivity panel, enzyme activity relative to DMSO controls, single concentration in duplicate; conditions: Substrate:=Histone H2A
Description: as §1

EZH2 Complex [6] = target: T14, EZH2 Complex; experiment: biochemical; parameters: Complex; protein methyltransferase selectivity panel, enzyme activity relative to DMSO controls, single concentration in duplicate; conditions: Substrate:=Core Histone
Description: as §1

EZH1 Complex [7] = target: T15, EZH1 Complex; experiment: biochemical; parameters: Complex; protein methyltransferase selectivity panel, enzyme activity relative to DMSO controls, single concentration in duplicate; conditions: Substrate:=Core Histone
Description: as §1

[8] = read-out: Enzyme % Activity (relative to DMSO controls) / MS67 / 10 / Data 1:
[9] = read-out: Enzyme % Activity (relative to DMSO controls) / MS67 / 10 / Data 2:

Q: What does the source list for `Cc1ncsc1-c1ccc([C@H](C)NC(=O)[C@@H]2C[C@@H](O)CN2C(=O)[C@@H](NC(=O)CNC(=O)c2ccc(F)c(-c3ccc(N4C[C@@H](C)N(C)[C@@H](C)C4)c(NC(=O)c4c[nH]c(=O)cc4C(F)(F)F)c3)c2)C(C)(C)C)cc1` [MS67]?
A: remaining activity at 1 µM (TAO2(h)): 95%; remaining activity at 1 µM (cSRC(h)): 96%; remaining activity at 1 µM (Abl(h)): 99%; remaining activity at 1 µM (Aurora-A(h)): 108%; remaining activity at 1 µM (PAK4(h)): 95%; remaining activity at 1 µM (Mnk2(h)): 125%; remaining activity at 1 µM (JNK1α1(h)): 104%; remaining activity at 1 µM (MARK1(h)): 100%; remaining activity at 1 µM (SGK(h)): 113%; remaining activity at 1 µM (CDK1/cyclinB(h)): 94%; remaining activity at 1 µM (CDK2/cyclinA(h)): 91%; remaining activity at 1 µM (SIK(h)): 84%; remaining activity at 1 µM (EGFR(h)): 101%; Kd [1]: 63 ± 10 nM; inhibition at 1 µM (SERT): 8.01%; inhibition at 1 µM (Alpha2B): 21.1%; inhibition at 1 µM (5-HT3): 26.6%; inhibition at 1 µM (5-HT1D): 41.7%; inhibition at 10 µM (PRMT5/MEP50 Complex [2]): < 10%; inhibition at 10 µM (EZH2 Complex [3]): < 10%; inhibition at 10 µM (EZH1 Complex [4]): < 10%; remaining activity at 10 µM (PRMT5/MEP50 Complex [5]; [8]): 96.2%; remaining activity at 10 µM (PRMT5/MEP50 Complex [5]; [9]): 97.3%; remaining activity at 10 µM (EZH2 Complex [6]; [8]): 106%; remaining activity at 10 µM (EZH2 Complex [6]; [9]): 101%; remaining activity at 10 µM (EZH1 Complex [7]; [8]): 97.1%; remaining activity at 10 µM (EZH1 Complex [7]; [9]): 103%
